Measured values as given in PMC10762078, “Role of UPF1-LIN28A interaction during early differentiation of pluripotent stem cells” (Nature Communications, 2024).

Key:
[1] = test system: CHA15 cells; test: Flow cytometry (FACS) of OCT4- and NANOG-positive cells (Fig. 6c, Supplementary Fig. 6b); assay type: cell-based, human
Procedure: (§1) For CPP-conjugated peptide delivery, HeLa, 293T, and PA-1 cells were incubated with CPP-conjugated peptides or CPP-FITC at 2 μM in DMEM with 10% FBS for 12 h a day before cell harvest. hPSCs were treated with CPP-conjugated peptides at 10 μM in mTeSR Plus Medium, and the peptide-containing medium was changed every day over 10 days. The ROCK inhibitor (Tocris Bioscience, Y-27632) treated-hPSCs were dissociated into single cells using Accutase (Merck, SCR005) and differentiated into ectoderm, mesoderm, and endoderm using the STEMdiff Trilineage Differentiation Kit ([…] Technologies, 05230) following the manufacturer’s protocol. Differentiated cells treated with CPP-conjugated peptides were analysed at 0, 3, and 5 days for ectoderm and endoderm, and at 0, 3, and 4 days for mesoderm.
To evaluate the relative cell number expressing the indicated proteins, CHA15 cells with the indicated CPP-conjugated peptide were fixed with BD Cytofix Fixation Buffer (BD Biosciences Pharmingen, 554655) followed by permeabilization with 0.1% BSA/PBS solution supplemented with 10% NGS and 0.3% Triton X-100 for 1 h at 4 °C. After washing, cells were incubated with the primary antibodies (OCT4 1:1000, NANOG 1:1000, DLK1 1:1000, SOX2 1:1000, LHX2 1:1000) and then, secondary antibody, Alexa Fluor 488 (1:1000), was applied. The positive cells were determined using flow cytometry (FACSCanto, BD Pharmingen), and data was analysed using the Flow Jo-v10 software program.

[2] = test system: hPSCs; test: RT-qPCR of pluripotency and germ-layer markers during differentiation with CPP-peptides (Supplementary Fig. 7b-e); assay type: cell-based, human; conditions: for CXCR4 (RT-qPCR) / FOXA1 (RT-qPCR) / GATA4 (RT-qPCR) / SOX17 (RT-qPCR): Fig. s7e; for BMP2 mRNA level (RT-qPCR) / BMP4 mRNA level (RT-qPCR) / CDH2 mRNA level (RT-qPCR) / CXCR4 mRNA level (RT-qPCR) / SNAI1 mRNA level (RT-qPCR) / TBXT mRNA level (RT-qPCR): Fig. s7d
Procedure: as §1, with “mesoderm. […]” for “mesoderm.”
cDNA was synthesised using RevertAid Reverse Transcriptase (Thermo Fisher Scientific, EP0441) with synthesised random hexamer (Macrogen) for total RNA or stem-loop primers for miRNA. For RT-qPCR reactions, the SensiFAST SYBR No-ROX kit (Meridian Bioscience) was used according to the manufacturer’s protocol. All data analysis and visualisation were conducted using R 3.6.1 [www.r-project.org] or GraphPad Prism 10. RT primers for miRNA and RT-qPCR primer sequences are provided in Supplementary Data 6. […]
FPKM of each gene was presented f r om RNA-seq analysis. b–e hPSCs wer e treated with the indicated peptide during each germ la ye r differentiation. […]
An unpaired Student’s t-test was used for a–e. Data are presented as mean values ± SEM. All statistical test us ed wer e two-s ided. T he m inim um number of independent biological replicate experim ents was a–f n = 3. T he experiments wer e conducted three tim es, each iteration producing consistent results.

[3] = CHA15, CPP-peptide 10 μM, mean of 3 sets

N-MPELQKLQQLKDE-C [P2, peptide derived from the UPF1 (419–700) domain]
NANOG-positive cells, FACS (relative), mean [1, 3]: 0.969 | OCT4-positive cells, FACS (relative), mean [1, 3]: 0.9851 | NANOG FACS, difference between means vs P1 ± SEM ([1]; CHA15, vs CPP-P1): -0.03103 ± 0.01235 | OCT4 FACS, difference between means vs P1 ± SEM ([1]; CHA15, vs CPP-P1): -0.01489 ± 0.005688 | CXCR4 (RT-qPCR) ([2]; Day 0, replicate 1): 1.088 | CXCR4 (RT-qPCR) ([2]; Day 0, replicate 2): 0.7848 | CXCR4 (RT-qPCR) ([2]; Day 0, replicate 3): 1.127 | CXCR4 (RT-qPCR) ([2]; Day 3, replicate 1): 897.043 | CXCR4 (RT-qPCR) ([2]; Day 3, replicate 2): 593.555 | CXCR4 (RT-qPCR) ([2]; Day 3, replicate 3): 261.141 | CXCR4 (RT-qPCR) ([2]; Day 5, replicate 1): 674.407 | CXCR4 (RT-qPCR) ([2]; Day 5, replicate 2): 690.257 | CXCR4 (RT-qPCR) ([2]; Day 5, replicate 3): 509.637 | FOXA1 (RT-qPCR) ([2]; Day 0, replicate 1): 1.247 | FOXA1 (RT-qPCR) ([2]; Day 0, replicate 2): 1.413 | FOXA1 (RT-qPCR) ([2]; Day 0, replicate 3): 0.3396 | FOXA1 (RT-qPCR) ([2]; Day 3, replicate 1): 120.605 | FOXA1 (RT-qPCR) ([2]; Day 3, replicate 2): 127.453 | FOXA1 (RT-qPCR) ([2]; Day 3, replicate 3): 128.785 | FOXA1 (RT-qPCR) ([2]; Day 5, replicate 1): 296.789 | FOXA1 (RT-qPCR) ([2]; Day 5, replicate 2): 436.764 | FOXA1 (RT-qPCR) ([2]; Day 5, replicate 3): 611.507 | BMP2 mRNA level (RT-qPCR) ([2]; Day 0, replicate 1): 0.8054 | BMP4 mRNA level (RT-qPCR) ([2]; Day 0, replicate 1): 1.545 | CDH2 mRNA level (RT-qPCR) ([2]; Day 0, replicate 1): 1.016 | CXCR4 mRNA level (RT-qPCR) ([2]; Day 0, replicate 1): 0.9995 | SNAI1 mRNA level (RT-qPCR) ([2]; Day 0, replicate 1): 1.4406 | TBXT mRNA level (RT-qPCR) ([2]; Day 0, replicate 1): 1.3 | BMP2 mRNA level (RT-qPCR) ([2]; Day 0, replicate 2): 1.199 | BMP4 mRNA level (RT-qPCR) ([2]; Day 0, replicate 2): 0.6508 | CDH2 mRNA level (RT-qPCR) ([2]; Day 0, replicate 2): 0.7569 | CXCR4 mRNA level (RT-qPCR) ([2]; Day 0, replicate 2): 1.121 | SNAI1 mRNA level (RT-qPCR) ([2]; Day 0, replicate 2): 0.9418 | TBXT mRNA level (RT-qPCR) ([2]; Day 0, replicate 2): 0.8652 | BMP2 mRNA level (RT-qPCR) ([2]; Day 0, replicate 3): 0.9954 | BMP4 mRNA level (RT-qPCR) ([2]; Day 0, replicate 3): 0.8046 | CDH2 mRNA level (RT-qPCR) ([2]; Day 0, replicate 3): 1.227 | CXCR4 mRNA level (RT-qPCR) ([2]; Day 0, replicate 3): 0.8798 | SNAI1 mRNA level (RT-qPCR) ([2]; Day 0, replicate 3): 0.6176 | TBXT mRNA level (RT-qPCR) ([2]; Day 0, replicate 3): 0.8351 | BMP2 mRNA level (RT-qPCR) ([2]; Day 3, replicate 1): 1.083 | BMP4 mRNA level (RT-qPCR) ([2]; Day 3, replicate 1): 30.6184 | CDH2 mRNA level (RT-qPCR) ([2]; Day 3, replicate 1): 23.3268 | CXCR4 mRNA level (RT-qPCR) ([2]; Day 3, replicate 1): 950.283 | SNAI1 mRNA level (RT-qPCR) ([2]; Day 3, replicate 1): 22.3091 | TBXT mRNA level (RT-qPCR) ([2]; Day 3, replicate 1): 6339.58 | BMP2 mRNA level (RT-qPCR) ([2]; Day 3, replicate 2): 0.8465 | BMP4 mRNA level (RT-qPCR) ([2]; Day 3, replicate 2): 25.9141 | CDH2 mRNA level (RT-qPCR) ([2]; Day 3, replicate 2): 19.1392 | CXCR4 mRNA level (RT-qPCR) ([2]; Day 3, replicate 2): 710.257 | SNAI1 mRNA level (RT-qPCR) ([2]; Day 3, replicate 2): 18.7714 | TBXT mRNA level (RT-qPCR) ([2]; Day 3, replicate 2): 5442.29 | BMP2 mRNA level (RT-qPCR) ([2]; Day 3, replicate 3): 1.108 | BMP4 mRNA level (RT-qPCR) ([2]; Day 3, replicate 3): 28.7876 | CDH2 mRNA level (RT-qPCR) ([2]; Day 3, replicate 3): 24.2422 | CXCR4 mRNA level (RT-qPCR) ([2]; Day 3, replicate 3): 582.163 | SNAI1 mRNA level (RT-qPCR) ([2]; Day 3, replicate 3): 15.4609 | TBXT mRNA level (RT-qPCR) ([2]; Day 3, replicate 3): 8084.66 | BMP2 mRNA level (RT-qPCR) ([2]; Day 4, replicate 1): 0.2114 | BMP4 mRNA level (RT-qPCR) ([2]; Day 4, replicate 1): 7.214 | CDH2 mRNA level (RT-qPCR) ([2]; Day 4, replicate 1): 11.5611 | CXCR4 mRNA level (RT-qPCR) ([2]; Day 4, replicate 1): 685.489 | SNAI1 mRNA level (RT-qPCR) ([2]; Day 4, replicate 1): 15.012 | TBXT mRNA level (RT-qPCR) ([2]; Day 4, replicate 1): 2940.28 | BMP2 mRNA level (RT-qPCR) ([2]; Day 4, replicate 2): 0.2729 | BMP4 mRNA level (RT-qPCR) ([2]; Day 4, replicate 2): 9.74 | CDH2 mRNA level (RT-qPCR) ([2]; Day 4, replicate 2): 14.1794 | CXCR4 mRNA level (RT-qPCR) ([2]; Day 4, replicate 2): 388.959 | SNAI1 mRNA level (RT-qPCR) ([2]; Day 4, replicate 2): 19.2435 | TBXT mRNA level (RT-qPCR) ([2]; Day 4, replicate 2): 3606.85 | BMP2 mRNA level (RT-qPCR) ([2]; Day 4, replicate 3): 0.3615 | BMP4 mRNA level (RT-qPCR) ([2]; Day 4, replicate 3): 11.782 | CDH2 mRNA level (RT-qPCR) ([2]; Day 4, replicate 3): 17.5421 | CXCR4 mRNA level (RT-qPCR) ([2]; Day 4, replicate 3): 349.009 | SNAI1 mRNA level (RT-qPCR) ([2]; Day 4, replicate 3): 14.5806 | TBXT mRNA level (RT-qPCR) ([2]; Day 4, replicate 3): 4470.07 | GATA4 (RT-qPCR) ([2]; Day 0, replicate 1): 0.7242 | GATA4 (RT-qPCR) ([2]; Day 0, replicate 2): 1.3517 | GATA4 (RT-qPCR) ([2]; Day 0, replicate 3): 0.9241 | GATA4 (RT-qPCR) ([2]; Day 3, replicate 1): 32.2036 | GATA4 (RT-qPCR) ([2]; Day 3, replicate 2): 43.7097 | GATA4 (RT-qPCR) ([2]; Day 3, replicate 3): 38.0896 | GATA4 (RT-qPCR) ([2]; Day 5, replicate 1): 51.4498 | GATA4 (RT-qPCR) ([2]; Day 5, replicate 2): 54.8514 | GATA4 (RT-qPCR) ([2]; Day 5, replicate 3): 109.794 | SOX17 (RT-qPCR) ([2]; Day 0, replicate 1): 1.264 | SOX17 (RT-qPCR) ([2]; Day 0, replicate 2): 0.8709 | SOX17 (RT-qPCR) ([2]; Day 0, replicate 3): 0.8647 | SOX17 (RT-qPCR) ([2]; Day 3, replicate 1): 1792.04 | SOX17 (RT-qPCR) ([2]; Day 3, replicate 2): 907.999 | SOX17 (RT-qPCR) ([2]; Day 3, replicate 3): 1484.43 | SOX17 (RT-qPCR) ([2]; Day 5, replicate 1): 1721.02 | SOX17 (RT-qPCR) ([2]; Day 5, replicate 2): 1190.77 | SOX17 (RT-qPCR) ([2]; Day 5, replicate 3): 1778.6
